The values that follow come from patent publication US20230391727A1, “ANALOGUES OF PENTAMIDINE AND METHODS FOR TREATING INFECTIONS” (Auransa Inc., priority 2020, published 2023).

Holding throughout (format): cell-based
For one data set, the system named is S. aureus ATCC 43300. The data set can be described thus: MIC assay against gram positive S. aureus. The following applies: Staphylococcus aureus, ATCC43300. On the procedure:
(§1) Then the compound stocks were serially 2-fold diluted in a v-bottom 96-well plate to make 100-fold working solutions. One day before the test, −80° C. glycerol stock of S. aureus strains were streaked on cation-adjusted Mueller-Hinton agar (CAMHA) plates. On the day of test, fresh bacterial colonies were suspended into sterile saline to an OD600 nm of ˜0.1 (equivalent to 0.5 McFarland). The bacterial suspension was firstly 20-fold followed by 50-fold diluted in cation-adjusted Mueller-Hinton broth (CAMHB) plates to 1×10^6 CFU/PO. 198 ul of the inoculum was added into the round-bottom 96-well plates prefilled with 2 ul of 100-fold compound working solutions. After incubating at 35 +/−2° C. in ambient atmosphere for 18-24 h, MIC was recorded as the lowest concentration under which no visible bacterial growth was observed.

The test system of a further data set is S. aureus ATCC 27660. The data set is described as follows: MIC assay against gram positive S. aureus. The following applies: Staphylococcus aureus, ATCC27660. On the procedure:
as §1

In data set [1] the test system is human primary hepatocytes. The data set is described as follows: alamarBlue cell viability, cytotoxicity in hepatocytes. The following applies: 24 hours. How it is done: Compound 3 was tested for cytotoxicity in human primary hepatocytes in duplicate at 8 concentrations ranging from 0.03 μM to 100 μM (0.013 μg/ml to 44.95 μg/ml ).
This assay was performed using cryopreserved human primary hepatocytes (PHH). The cryopreserved PHH were seeded in collagen I coated 96-well plates in plating medium. The medium was replaced with incubation medium 2-4 hours after seeding. After overnight culture, test compound (compound 3) (0.03, 0.1, 0.3, 1, 3, 10, 30, 100 μM), reference compound (chlorpromazine) and vehicle control (1% DMSO) were added, and incubated with the cells for 24 hours followed by the addition of the alamarBlue cell viability reagent. The plates are analyzed for fluorescent intensity after alamarBlue addition. % of cell viability (% of control) was calculated by comparing the background (wells without cells) corrected fluorescent intensity in the compound treated wells and vehicle control treated wells. IC50 values were determined by non-linear regression analysis of the concentration-response curves using the Hill equation. Testing was done in duplicate.
(Resazurin is reduced to fluorescent resorufin, in cell work by metabolically active cells.)

Molecules are shown by their SMILES. Converted amounts (≈) assume the structure as drawn. “And” between values parts separate entries of the source, which are not always exact repeats. Equal values may be shown once.

Broadly, the MIC is the lowest concentration found to suppress growth. Read a high MIC as a need for much substance. A word on the IC50: it is the concentration at which inhibition is half-maximal. A lower IC50 goes with greater potency in that assay. Turning to `N=C(N)c1ccc(CC[C@H]2CCC[C@@H](CCc3ccc(C(=N)N)cc3)C2)cc1` [Compound 3, 4,4′-(2,2′-((1R,3S)-cyclohexane-1,3-diyl)bis(ethane-2,1-diyl))dibenzimidamide], the minimum inhibitory concentration (MIC) against S. aureus ATCC 43300 and in the data set on S. aureus ATCC 27660 was 0.5 µg/mL (≈ 1.33 µM) each time. Besides, the “effect on cell viability” value is “No inhibition on cell viability” in data set [1] (10 μM (4.49 μg/ml) and lower concentrations); “significant effects on cell viability” in data set [1] (30 uM and 100 μM (13.48 μg/ml and 44.95 μg/ml)). Further, in data set [1] (Hepatocyte, human primary hepatocytes), the IC50 was 25 µM and 11.2 µg/mL.
